Results taken from US7745459B2, “Quinolizinone compound and use thereof as HIV integrase inhibitor” (Japan Tobacco Inc., priority 2004, dated 2010).

Target: T1, HIV integrase (Human immunodeficiency virus type 1 group M subtype B, UniProt P12497, F1332H)
T1 construct: HIV integrase full length gene; made in house; host or cells: Escherichia coli BL21 (DE3)
Assay: Determination of enzyme (HIV integrase) inhibitory activity
Format: biochemical
Conditions: recombinant integrase protein (phenylalanine at codon 185 substituted by histidine); donor/target DNA, absorbance at 450 nm; read-out: Anti-integrase activity (IC50 value)
Excerpt: The following explains evaluation methods of the HIV integrase inhibitory activity of the compound of the present invention.
HIV integrase full length gene (J. Virol., 67, 425-437 (1993)) in which phenylalanine at codon 185 was substituted by histidine, was inserted between the restriction enzyme NdeI and XhoI sites of plasmid pET21a(+) (Novagen), whereby an integrase expression vector pET21a-INH was constructed.
Escherichia coli recombinant BL21 (DE3) transformed with plasmid pET21a-INH obtained in (i) was shake cultured at 37° C. in a liquid medium containing ampicillin. When the culture reached the logarithmic growth phase, isopropyl-β-D-thiogalactopyranoside was added to promote expression of integrase gene. The culture was continued for 3 hr to promote accumulation of the integrase protein. The recombinant E. coli was collected in pellets by centrifugal separation and preserved at −80° C.
The E. coli was suspended in Lysis buffer (20 mM HEPES (pH 7.5), 5 mM DTT, 10 mM CHAPS, 10% glycerol) containing 1 M sodium chloride and subjected to repeat pressurization and depressurization for rupture, and centrifugal separation at 4° C., 40,000×g, 60 min to recover a water-soluble fraction (supernatant). This was diluted 10-fold with Lysis buffer free of sodium chloride, mixed with SP-Sepharose (Pharmacia Corporation) and stirred at 4° C. for 60 min to allow adsorption of integrase protein to the resin. The resin was washed with Lysis buffer containing 100 mM sodium chloride and the integrase protein was eluted with Lysis buffer containing 1 M sodium chloride.
The eluted integrase protein solution was subjected to a Superdex 75 (Pharmacia Corporation) column for gel filtration. The protein was eluted with Lysis buffer containing 1 M sodium chloride.
The obtained fractions of the integrase protein were collected and preserved at −80° C.
The following DNA synthesized by Greiner was dissolved in TE buffer (10 mM Tris-hydrochloric acid (pH 8.0), 1 mM EDTA) and mixed with donor DNA, target DNA, and each complementary strand (+ and − strands) to 1 μM. The mixture was heated at 95° C. for 5 min, 80° C. for 10 min, 70° C. for 10 min, 60° C. for 10 min, 50° C. for 10 min and 40° C. for 10 min and kept at 25° C. to give a double stranded DNA, which was used for the test.
The donor DNA was diluted with TE buffer to 10 nM, of which 50 μl was added to each well of streptavidin-coated microtiter plate (Roche) and allowed to adsorb at 37° C. for 60 min. The plate was washed with phosphate buffer (Dulbecco's PBS, Sanko Junyaku Co., Ltd.) containing 0.1% Tween 20 and phosphate buffer. Then, a reaction mixture (70 μl) having the following composition, a test substance (10 μl) diluted with the reaction mixture and 100 μg/ml integrase protein (10 μl) were added to each well and reacted at 37° C. for 60 min. Composition of the reaction mixture: 30 mM MOPS (3-morpholinopropanesulfonic acid), 5 mM magnesium chloride, 3 mM DTT (dithiothreitol), 0.1 mg/ml BSA (bovine serum albumin), 5% glycerol, 10% DMSO (dimethyl sulfoxide), 0.01% Tween 20.
Then, 50 nM target DNA (10 μl) was added, and the mixture was reacted at 37° C. for 10 min and washed with phosphate buffer containing 0.1% Tween 20 to stop the reaction.
Then, 100 mU/ml peroxidase labeled anti-digoxigenin antibody solution (Roche, 100 μl) was added, and the mixture was reacted at 37° C. for 60 min, followed by washing with phosphate buffer containing 0.1% Tween 20.
A peroxidase color solution (Bio Rad, 100 μl) was added and allowed to react at room temperature for 4 min. The color reaction was stopped by adding 1N sulfuric acid (100 μl). The absorbance at 450 nm was measured. […]

Row | Structure (SMILES) | IC50
1 | COC(C)(C)C(=O)NCc1cc(C(=O)O)c(=O)n2cc(Cc3cccc(Cl)c3F)ccc12 [Example 56, 7-(3-chloro-2-fluorobenzyl)-1-[(2-methoxy-2-methylpropionylamino)methyl]-4-oxo-4H-quinolizine-3-carboxylic acid] | 100 to 1000 nM
2 | CC(=O)NCC(=O)NCc1cc(C(=O)O)c(=O)n2cc(Cc3cccc(Cl)c3F)ccc12 [Example 57, 1-[(2-acetylaminoacetylamino)methyl]-7-(3-chloro-2-fluorobenzyl)-4-oxo-4H-quinolizine-3-carboxylic acid] | 100 to 1000 nM
3 | COCOc1cc(C(=O)O)c(=O)n2cc(Cc3cccc(Cl)c3F)ccc12 [Example 58, 7-(3-chloro-2-fluorobenzyl)-1-methoxymethoxy-4-oxo-4H-quinolizine-3-carboxylic acid] | 100 to 1000 nM
4 | CCOC(=O)c1cc(NC(=O)OC(C)(C)C)c2ccc(Cc3cccc(Cl)c3F)cn2c1=O [Example 60, ethyl 1-(tert-butoxycarbonylamino)-7-(3-chloro-2-fluorobenzyl)-4-oxo-4H-quinolizine-3-carboxylate] | 100 to 1000 nM
5 | CC(=O)Nc1cc(C(=O)O)c(=O)n2cc(Cc3cccc(Cl)c3F)ccc12 [Example 61, 1-acetylamino-7-(3-chloro-2-fluorobenzyl)-4-oxo-4H-quinolizine-3-carboxylic acid] | 100 to 1000 nM
6 | CC(C)(C)OC(=O)c1cc(C(=O)O)c(=O)n2cc(Cc3cccc(Cl)c3F)ccc12 [Example 62, 7-(3-chloro-2-fluorobenzyl)-4-oxo-4H-quinolizine-1,3-dicarboxylic acid 1-tert-butyl ester] | 100 to 1000 nM
7 | CC(C)[C@@H](CO)c1cc(C(=O)O)c(=O)n2cc(Cc3cccc(Cl)c3Cl)ccc12 [Example 63, 7-(2,3-dichlorobenzyl)-1-((R)-1-hydroxymethyl-2-methylpropyl)-4-oxo-4H-quinolizine-3-carboxylic acid] | < 10 nM
8 | CC(C)(C)[C@@H](CO)c1cc(C(=O)O)c(=O)n2cc(Cc3cccc(Cl)c3Cl)ccc12 [Example 64, 7-(2,3-dichlorobenzyl)-1-((R)-1-hydroxymethyl-2,2-dimethylpropyl)-4-oxo-4H-quinolizine-3-carboxylic acid] | < 10 nM
